Data reported in US20240398781A1, “SPIROCYCLIC CYCLIC MODULATORS OF CHOLESTEROL BIOSYNTHESIS AND THEIR USE FOR PROMOTING REMYELINATION” (GENENTECH, INC., priority 2021, published 2024).
pEC50, pKi: −log10 of the molar value.

Columns and labels:
[1] = system: EBP (zymostenol accumulation in EpiSC-derived OPCs); experiment: GC/MS-based sterol profiling, zymostenol accumulation in OPCs; format: cell-based, mouse; conditions: Mus musculus, 24 h, EpiSC-derived OPCs, 24 hr treatment, 8 doses from 0.15 nM to 333 nM; read-out: Zymostenol GCMS EC50
Method: To assess effects of treatments on OPCs, all treatments were assayed in two or more independent platings of epiblast stem cell-derived OPCs ([…]-derived OPCs were obtained using in vitro differentiation protocols and culture conditions described previously (Najm et al, 2011, Nature Methods). OPCs were expanded and frozen down in aliquots. OPCs were thawed into growth conditions for at least one passage before use in further assays. Sterols were monitored using a modified Folch wash protocol (Hubler et al, 2018, Nature). EpiSC-derived OPCs were plated at 100,000 cells per well in PO- and laminin-coated 96-well plates in N2B27 media without growth factors. After 24 hours, cells were rinsed with saline and plates were frozen. Cholesterol-d7 standard was then added to each well before drying under nitrogen stream and derivatization with 55 μl of bis(trimethylsilyl) trifluoroacetamide. After derivatization, 2 μl were analyzed by gas chromatography/mass spectrometry using an Agilent 5973 Network Mass Selective Detector equipped with a 6890 gas chromatograph system and a HP-5MS capillary column (30 m×0.25 mm×0.25 mm). Samples were analyzed in full scan mode using electron impact ionization; ion fragment peaks were integrated to calculate sterol abundance, and quantitation was relative to cholesterol-d7. […] All standards were obtained from Avanti Polar Lipids unless otherwise indicated. Calibration curves were generated by injecting varying concentrations of sterol standards and maintaining a fixed amount of cholesterol-D7. For normalized zymostenol accumulation results, the total amount of zymostenol measured after drug treatment was divided by the total amount of zymostenol accumulated after 24 hr treatment with 100 nM positive control reference.

[2] = target: human emopamil binding protein and human 7-dehydrocholesterol reductase co-expressing cells (hEBP-DHCR7 membrane) (Homo sapiens (Human), UniProt Q15125); experiment: Radioligand filter binding assay on hEBP-DHCR7 membrane; conditions: [3H]-(S)-6-(2-Methyl-3-(6-(trifluoromethyl)pyridin-3-yl)propyl)-2-thia-6-azaspiro[3.4]octane 2,2-dioxide radioligand, HEK293 membrane co-expressing hEBP and hDHCR7
Method: Membrane Preparation: human emopamil binding protein and human 7-dehydrocholesterol reductase co-expressing cells were generated by transient transfecting host human embryonic kidney (HEK) 293 cells with 2 DNA constructs containing each protein's coding sequence. Cells were suspension cultured at 37° C. with 5% CO2 in […] 293 Expression Medium (Thermofisher). Whole cell membrane was prepared by harvesting the cell pellet, adding cold membrane buffer (50 mM Tris, pH7.5, lx Roche COMPLETE EDTA-free protease inhibitor cocktail) 10 times volume of the cell pellets weight, lysing cell pellet on ice by using Dounce homogenizer, spinning at 200 g 4° C. for 15 min, collecting supernatant and spinning again at 25000 g 4° C. for 50 min, transferring pellet to Dounce homogenizer, re-suspending pellet by homogenizing in membrane buffer on ice to reach ˜25 mg/mL, then keeping whole cell membrane aliquots at −80° C.
Compounds were prepared in a 96-well U bottom plate using an Echo550 machine and 10 mM compound DMSO stock solution, followed by an 8-dose 5-fold serial dilutions protocol with final testing compound concentration ranging from 0.06 to 5000 nM, with DMSO back fill to 100 nL/well and n=2. […] The UniFilter-96 GF/B plates were pre-treated by adding 50 μl/well of 0.3% (v/v) PEI to UniFilter-96 GF/B plates. The plates were sealed and incubated at 4° C. for 3 hrs. Then, the plates were washed with ice-cold assay buffer 3 times. The radioligand binding assay was prepared by adding assay buffer diluted hEBP-DHCR7 membrane at 66.7 μg/ml×150 μl/well into the 96-well compound plate to reach 10 μg membrane per well. Then, the assay buffer diluted [3H]—(S)-6-(2-Methyl-3-(6-(trifluoromethyl)pyridin-3-yl)propyl)-2-thia-6-azaspiro[3.4] octane 2,2-dioxide was added at 25 nM×50 μl/well. Following this, the plate was centrifuged at 1000 rpm for 30 secs. The plate was then sealed and agitated at 600 rpm at 22° C. for 5 min, and then incubated at 22° C. for 3 hrs. The incubation was stopped by transferring the binding solution to the pre-treated UniFilter-96 GF/B plate, vacuum filtrated, and then washed four times with ice-cold assay buffer. Following this, the plates were dried at 37° C. for 45 min. The plates were then sealed at the bottom. 40 μl/well of scintillation cocktail was added to the plates. A MicroBeta2 microplate counter was then used to read the plate and analyze the data. For reference and test compounds, the results are expressed as % Inhibition, using the normalization equation: N=100−100×(U−C2)/(C1−C2), where U is the unknown value, C1 is the average of high controls, and C2 is the average value of low controls. The IC50 was determined by fitting percentage of inhibition as a function of compound concentrations with Hill equation using XLfit. Results are expressed as hEBP-DHCR7 Ki (uM) in Table 4. Ki was calculated as described above. The asterix (*) indicates an isolated isomer or isolated group of isomers, but that the stereochemistry has not been assigned.

human emopamil binding protein and human 7-dehydrocholesterol reductase co-expressing cells (hEBP-DHCR7 membrane), sequence (Q15125 whole entry): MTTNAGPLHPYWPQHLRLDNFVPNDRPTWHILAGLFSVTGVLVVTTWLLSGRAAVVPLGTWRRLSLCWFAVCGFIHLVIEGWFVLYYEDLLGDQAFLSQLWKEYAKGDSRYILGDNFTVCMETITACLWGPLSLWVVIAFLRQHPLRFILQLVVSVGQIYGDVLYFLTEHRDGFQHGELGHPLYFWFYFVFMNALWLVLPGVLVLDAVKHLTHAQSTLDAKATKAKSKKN

SMILES | pEC50 [1] | pKi [2]
CC(C)n1nc(-c2ccc(C(F)(F)F)cc2)nc1[C@@H]1CC[C@H](N2CCC3(C2)CS(=O)(=O)C3)C1 (single isomer, unassigned) [53C*] | 8.96 | 8.00
O=S1(=O)CC2(CCN([C@@H]3CCC[C@H](c4ccc(C(F)(F)F)nc4)C3)C2)C1 (single isomer, unassigned) [54A*] | 7.21 | 7.68
O=S1(=O)CC2(CCN([C@H]3CCC[C@@H](c4ccc(C(F)(F)F)nc4)C3)C2)C1 (single isomer, unassigned) [54C*] | < 6.48 | 6.46
CC(C)n1nc(C(F)(F)F)cc1[C@@H]1CCC[C@@H](N2CCC3(C2)CS(=O)(=O)C3)C1 (single isomer, unassigned) [61A*] | < 6.48 | 7.10
CC(C)n1nc(C(F)(F)F)cc1[C@H]1CCC[C@@H](N2CCC3(C2)CS(=O)(=O)C3)C1 (single isomer, unassigned) [61B*] | 7.00 | 7.64
CC(C)n1nc(C(F)(F)F)cc1[C@H]1CCC[C@H](N2CCC3(C2)CS(=O)(=O)C3)C1 (single isomer, unassigned) [61D*] | < 6.48 | 6.46
O=S1(=O)CC2(CCN([C@@H]3CCCN(c4ccc(C(F)(F)F)nc4)C3)C2)C1 (single isomer, unassigned) [66A*] | < 6.48 | 5.70
O=S1(=O)CC2(CCN([C@H]3CCCN(c4ccc(C(F)(F)F)nc4)C3)C2)C1 (single isomer, unassigned) [66B*] | 7.92 | 7.21
O=S1(=O)CC[C@@]2(CCCN([C@H]3CC[C@@H](c4ccc(C(F)(F)F)cn4)CC3)C2)C1 (single isomer, unassigned) [68A*] | 6.72 | 
O=S1(=O)CC[C@]2(CCCN([C@H]3CC[C@@H](c4ccc(C(F)(F)F)cn4)CC3)C2)C1 (single isomer, unassigned) [68C*] | < 6.48 | 
O=S1(=O)CC[C@]2(CCCN([C@H]3CC[C@H](c4ccc(C(F)(F)F)cn4)CC3)C2)C1 (single isomer, unassigned) [68D*] | 7.38 | 
O=S1(=O)CC[C@@]2(CCCN([C@H]3CC[C@H](c4cc(C(F)(F)F)nn4C4CC4)CC3)C2)C1 (single isomer, unassigned) [69B*] | 7.64 | 7.46
O=S1(=O)CC[C@]2(CCCN([C@H]3CC[C@H](c4cc(C(F)(F)F)nn4C4CC4)CC3)C2)C1 (single isomer, unassigned) [69D*] | 7.24 | 7.30

Next, values leading:

pEC50 [1] | pKi [2] | SMILES
6.55 |  | O=S1(=O)CC[C@@]2(CCCN([C@H]3CC[C@H](c4ccc(C(F)(F)F)nc4)CC3)C2)C1 (single isomer, unassigned) [71B*]
7.21 |  | O=S1(=O)CC[C@]2(CCCN([C@H]3CC[C@@H](c4ccc(C(F)(F)F)nc4)CC3)C2)C1 (single isomer, unassigned) [71C*]
< 6.48 |  | O=S1(=O)CC[C@]2(CCCN([C@H]3CC[C@H](c4ccc(C(F)(F)F)nc4)CC3)C2)C1 (single isomer, unassigned) [71D*]
< 6.48 | 7.15 | CC(C)n1nc(C(F)(F)F)cc1[C@@H]1CCC[C@@H](N2CCC3(CC2)CS(=O)(=O)C3)C1 (single isomer, unassigned) [78A*]
7.72 | 7.34 | CC(C)[C@@H]1C[C@@H](N2CCC3(C2)CS(=O)(=O)C3)CCN1c1ccc(C(F)(F)F)nc1 (single isomer, unassigned) [82B*]
7.22 | 6.51 | CC(C)n1nc(C(F)(F)F)cc1[C@H]1CC[C@H](N2CCC[C@@]3(CCS(=O)(=O)C3)C2)CC1 (single isomer, unassigned) [91B*]
8.09 |  | CC(C)n1nc(C(F)(F)F)cc1[C@H]1CC[C@@H](N2CCC[C@]3(CCS(=O)(=O)C3)C2)CC1 (single isomer, unassigned) [91C*]
7.30 |  | CC(C)n1nc(C(F)(F)F)cc1[C@H]1CC[C@H](N2CCC[C@]3(CCS(=O)(=O)C3)C2)CC1 (single isomer, unassigned) [91D*]
6.55 | 7.05 | CC(C)C1C[C@H](N2CCC3(C2)CS(=O)(=O)C3)CCN1c1ccc(C(F)(F)F)nc1 (stereo in doubt) [82A*, 6-((2R,4R)-2-Isopropyl-1-(6-(trifluoromethyl)pyridin-3-yl)piperidin-4-yl)-2-thia-6-azaspiro[3.4]octane 2,2-dioxide]
< 6.48 | 7.44 | CC(C)[C@H]1CC(N2CCC3(C2)CS(=O)(=O)C3)CCN1c1ccc(C(F)(F)F)nc1 (stereo in doubt) [82C*, 6-((2R,4S)-2-isopropyl-1-(6-(trifluoromethyl)pyridin-3-yl)piperidin-4-yl)-2-thia-6-azaspiro[3.4]octane 2,2-dioxide]
< 6.48 | 7.00 | CC(C)[C@@H]1C[C@H](N2CCC3(C2)CS(=O)(=O)C3)CCN1c1ccc(C(F)(F)F)nc1 (stereo in doubt) [82D*, 6-((2S,4R)-2-isopropyl-1-(6-(trifluoromethyl)pyridin-3-yl)piperidin-4-yl)-2-thia-6-azaspiro[3.4]octane 2,2-dioxide]
7.44 | 7.07 | O=S1(=O)CC2(CCN([C@H]3CC[C@H](c4ccc(C(F)(F)F)nc4)CC3)CC2)C1 [81A*, 7-((1r,4r)-4-(6-(Trifluoromethyl)pyridin-3-yl)cyclohexyl)-2-thia-7-azaspiro[3.5]nonane 2,2-dioxide]
7.00 | 6.51 | O=S1(=O)CCC2(CCN([C@H]3CC[C@@H](c4ccc(C(F)(F)F)cn4)CC3)C2)CC1 [84A*, 2-((1r,4r)-4-(5-(Trifluoromethyl)pyridin-2-yl)cyclohexyl)-8-thia-2-azaspiro[4.5]decane 8,8-dioxide]
7.85 | 8.02 | O=S1(=O)CC2(CCN([C@H]3CC[C@@H](c4ncc(C(F)(F)F)cc4Cl)CC3)C2)C1 [Compound 48B, 6-((1s,4s)-4-(3-chloro-5-(trifluoromethyl)pyridin-2-yl)cyclohexyl)-2-thia-6-azaspiro[3.4]octane 2,2-dioxide]
7.44 |  | O=S1(=O)CC2(CCN([C@H]3CC[C@H](c4ccnc(C(F)(F)F)c4Cl)CC3)C2)C1 [Compound 92A, 6-((1r,4r)-4-(3-Chloro-2-(trifluoromethyl)pyridin-4-yl)cyclohexyl)-2-thia-6-azaspiro[3.4]octane 2,2-dioxide]
8.28 |  | O=S1(=O)CC2(CCN([C@H]3CC[C@@H](c4ccnc(C(F)(F)F)c4Cl)CC3)C2)C1 [Compound 92B, 6-((1s,4s)-4-(3-chloro-2-(trifluoromethyl)pyridin-4-yl)cyclohexyl)-2-thia-6-azaspiro[3.4]octane 2,2-dioxide]
7.92 |  | O=S1(=O)CC2(CCCN([C@H]3CC[C@H](c4ccnc(C(F)(F)F)c4)CC3)C2)C1 [Compound 93, 6-((1r,4r)-4-(2-(Trifluoromethyl)pyridin-4-yl)cyclohexyl)-2-thia-6-azaspiro[3.5]nonane 2,2-dioxide]
